Bridge positions count the residues as written; N and C are the ends. Square brackets hold non-standard residues; d marks the D form. Peptide text beside a SMILES is read from it.
System: Sprague-Dawley (SD) rats
Assay: Chronic infusion, acute kidney dysfunction following renal ischemia
Type: in vivo, rat
Details: FIG. 5
Experimental: After removing the renal artery clamps, peptide #2 or #33 was infused at two doses using intraperitoneally implanted Alzet™ minipumps (2ML1; delivery rate 10 μl/h). Plasma creatinine and BUN were determined at the indicated times. Data were analyzed by two way ANOVA using Bonferroni test for significance against the saline-treated group (n=3 per group; sal n=6); and
Surgical preparation. The rats were anesthetized with Isoflurane 2.5% for the duration of the experiment. Animals were placed under radiant warmer to keep the temperature at 37.5° C. A blood sample (0.5 ml) was collected via tail vein artery before the renal artery clamping. Once the animal was anesthetized, placed in a supine position, a 1.5 cm flank incision was made on the right side of the abdominal wall. The right kidney was then exposed and the ureter, renal artery and renal vein were carefully dissected and ligated. The kidney was removed after cutting renal pedicle. A same incision was made on the left side of the abdominal wall. The left kidney is exposed and the renal vascular pedicle is carefully dissected. The renal vascular pedicle was then occluded by placing a vascular clip (Micro Serrefine™, Fine Science Tools) for a period of 30 or 45 minutes. This renal vascular pedicle clamping produced an acute renal artery occlusion (RAO). The kidney was inspected for ischemia as well as for good reperfusion after removing vascular clip for 2 minutes. The wound of abdominal wall was closed in two layers. The muscular layer was closed with a running 3-0 silk suture and the skin was closed with suture clips (Fine Science Tools). 21 hours after right nephrectomy and left renal artery clipping procedure, the rats were put in the metabolic cages for urine collection (in pre-weighed Tube 50 ml) for 3 hours. Urine volume was measured by weighing the tube containing urine. Then, the animals were anesthetized with Isoflurane 2.5%. Left kidney was removed and kept in formalin for future histology. Blood was collected by cardiac puncture into a heparinized syringe (3 ml) and immediately transferred into appropriately labeled tubes that contain heparin as the anticoagulant. Following collection, all blood samples were kept on ice and centrifuged for 2 min at 13000 rpm. Plasma and urine aliquots (400 μl) were removed and stored at −80° C.
In order to test the effect of chronic infusion of the bifunctional hormone on kidney function on kidney injury, peptides #2 or #33 were infused at 1.5 or 15 μg/kg/h for 24 h after renal artery clamp removal. Plasma creatinine and urea nitrogen were determined at 24 h after the injury. The experimental procedures (animal model, dosing solutions) were the same as those described in Example 5 above.

[1] = 1.5 or 15 μg/kg/h for 24 h after clamp removal (Alzet minipumps), vs saline-treated animals at 24 h

Structure (SMILES): CC[C@H](C)[C@@H]1NC(=O)[C@H](CCCNC(=N)N)NC(=O)[C@H](CC(=O)O)NC(=O)[C@H](CCSC)NC(=O)[C@H](CCCNC(=N)N)NC(=O)CNC(=O)CNC(=O)[C@H](Cc2ccccc2)NC(=O)[C@@H](NC(=O)[C@H](CCSC)NC(=O)[C@@H]2CCCN2C(=O)[C@H](CCCCN)NC(=O)CNC(=O)[C@H](Cc2c[nH]c3ccccc23)NC(=O)[C@H](CCCNC(=N)N)NC(=O)[C@@H](Cc2ccccc2)NC(=O)[C@H](Cc2c[nH]cn2)NC(C)=O)CSSC[C@@H](C(=O)N[C@@H](CC(N)=O)C(=O)N[C@@H](CO)C(=O)N[C@@H](Cc2ccccc2)C(=O)N[C@@H](CCCNC(=N)N)C(=O)N[C@@H](Cc2ccc(O)cc2)C(N)=O)NC(=O)CNC(=O)[C@H](CC(C)C)NC(=O)CNC(=O)[C@H](CO)NC(=O)[C@H](CCC(N)=O)NC(=O)[C@H](C)NC(=O)CNC1=O [SEQ ID NO: 33, Ac-H-f-R-W-G-K-P-M-[C-F-G-G-R-M-D-R-I-G-A-Q-S-G-L-G-C]-N-S-F-R-Y-NH2] (Ac-H[dF]RWGKPMCFGGRMDRIGAQSGLGCNSFRY-NH2; disulfide 9-25)
- dose dependence of reduction in the blood markers of renal ischemia (1.5 and 15 μg/kg/h for 24 h): dose-dependent reduction
- BUN [1]: reduced plasma creatinine and BUN significantly
- plasma creatinine [1]: reduced plasma creatinine and BUN significantly
- reduction in BUN levels, compared with native ANP (24-hour infusion): more pronounced reduction
- reduction in creatinine levels, compared with native ANP (24-hour infusion): more pronounced reduction
